The text below walks through data of US12048691B2 (SPERO THERAPEUTICS, INC., priority 2020, dated 2024).

Values after ≈ are worked out from the molar mass of the structure shown. Like-named read-outs stand apart in the source and are kept apart here.

What all share (type): cell-based
The subject of assay [1] is AmpC production in Enterobacterales. Description: AmpC induction (nitrocefin hydrolysis after drug exposure). The settings on record: tebipenem/imipenem except for C. koseri and S. marcescens. On the procedure: (§1) AmpC induction was determined as follows. Baseline MIC values were determined by broth microdilution method, as described above, for 9 Gram-negative isolates with basal expression of ampC. These isolates were cultured overnight on blood agar plates. A standardized inoculum made from fresh overnight plate cultures was added to flasks containing 50 mL of Luria-Bertani (LB) broth and incubated by shaking at 37° C. to OD600 of 0.3. […] These cultures were incubated under shaking conditions. A 40 mL aliquot of bacterial cultures was sampled at time 0 and 2 hours after drug exposures. Each sample aliquot was harvested by centrifugation and the supernatant was discarded.
(§2) Protein crude extract preparations were made in 200 μL of BugBusterR (Novagen, Darmstadt, Germany) per manufacturer instructions and cell debris was removed by centrifugation. Protein concentrations were determined in each crude extract by standard methodologies.
(§3) AmpC induction was measured by the intensity of β-lactamase hydrolytic activity against 0.1 mM nitrocefin in 0.1 M phosphate buffer at pH 7.0 using spectrophotometry at 482 nm (Δ absorbance/minute/mg of protein). The drug exposure conditions that caused a >4-fold increase in hydrolysis activity compared to the baseline were subjected to postinduction experiments. Briefly, cells were grown under the same conditions as before and tested for susceptibility by broth microdilution.

For assay [2], the system named is AmpC production in P. aeruginosa. The description is as above. On the procedure: as §1, §2, §3
The subject of assay [3] is Enterobacterales overproducing AmpC. The experiment in a line: Broth microdilution susceptibility of isolates overexpressing AmpC. On the procedure:
(§4) Frozen-form broth microdilution panels were manufactured by JMI Laboratories and contained cation-adjusted Mueller-Hinton broth. Quality assurance was performed by sterility checks, colony counts, and testing CLSI recommended quality control reference strains.
Background: Broth dilution looks for growth in wells or tubes with falling amounts of substance.

In assay [4] the test system is P. aeruginosa isolates that overproduced AmpC. Described as above. The note with it: P. aeruginosa (32). On the procedure: as §4
The subject of assay [5] is P. mirabilis. The experiment in a line: Broth microdilution against US UTI pathogens 2019-2020. The settings on record: P. mirabilis (235); for % susceptible; CLSI: cefuroxime: oral breakpoint. How it is done: (§5) This study assessed the in vitro activity of tebipenem and comparator agents against Enterobacterales (ENT) responsible for UTIs in the US during 2019-2020. A total of 3,576 ENT recovered from urine samples during the 2019-2020 STEWARD Surveillance Program were included in the study. Isolates were collected from medical centers in all 9 US Census Regions and were centrally tested for susceptibility by reference broth microdilution method. MIC interpretation was performed based on CLSI criteria.

Assay [6] deals with Enterobacterales (ENT). Described as above. The settings on record: for % susceptible; CLSI: cefuroxime: oral breakpoint. How it is done:
as §5

Assay [7] has as its system E. coli. The description is as above. The settings on record: E. coli (2,339); for % susceptible; CLSI: cefuroxime: oral breakpoint. How it is done: as §5
The subject of assay [8] is K. pneumoniae. The assay is described as above. The settings on record: K. pneumoniae (511); for % susceptible; CLSI: cefuroxime: oral breakpoint. How it is done: as §5
The subject of assay [9] is Vancomycin-susceptible Enterococcus faecalis. The experiment in a line: Broth microdilution against Gram-positive clinical isolates. The settings on record: E. faecalis. On the procedure: (§6) The purpose of this study was to investigate the in vitro activity of tebipenem and comparator agents, including ertapenem and meropenem, against a recent collection of Gram-positive isolates associated with clinical infections. The susceptibility of 580 Gram-positive organisms were tested, including: Methicillin-susceptible Staphylococcus aureus (MSSA, 489 isolates), Methicillin-susceptible Staphylococcus epidermidis (MSSE, 31), other methicillin-susceptible coagulase-negative staphylococci (MSCONS, 29), and Vancomycin-susceptible Enterococcus faecalis (31). Bacterial species were identified by JMI Laboratories using standard microbiology methods and matrix-assisted laser desorption ionization-time of flight mass spectrometry (Bruker Daltonics, Bremen, Germany). The isolates were collected in 2018 and 2019 as part of the SENTRY surveillance program and selected to be representative of these species with 45.0% from the United States, 44.3% from Europe, 5.3% from the Asia-Pacific region, and 5.3% from Latin America. Isolates are primarily from pneumonia in hospitalized patients (498 isolates; 85.9%), urinary tract infections (42 isolates; 7.2%), and bloodstream infections (38 isolates; 6.6%). Isolates were tested in a central laboratory (JMI Laboratories) for antimicrobial susceptibility using the CLSI M07 (2018) reference broth microdilution method. JMI Laboratories produced frozen-form 96-well panels and used cation-adjusted Mueller-Hinton broth (CA-MHB) as the testing medium. All categorical interpretations used CLSI M100 (2021) and EUCAST v10.0 (2021) breakpoint criteria, where published. Quality control organisms include Escherichia coli ATCC 25922, Escherichia coli ATCC 35218, Enterococcus faecalis ATCC 29212, Pseudomonas aeruginosa ATCC 27853, and Staphylococcus aureus ATCC 29213 were tested concurrently with clinical isolates.

Assay [10] has as its system E. coli. Description: Susceptibility of E. coli from urinary tract infections, 18 EU countries 2020 (STEWARD). The note with it: for prevalence of resistant phenotype / Susceptibility rate: all E. coli; for MIC90: Escherichia coli, all E. coli (764) from UTIs; for Susceptibility rate: EUCAST criteria. How it is done: The study assessed the prevalence of resistance and evaluated the activity of oral tebipenem (TBP) and comparators against EC from urinary tract infections.
Results were interpreted using EUCAST criteria. […] ESBL phenotypes were determined by CLSI criteria and sequenced to identify CTX-M-15 genotype and clonal complex ST131.

Assay [11] deals with E. coli. The experiment in a line: Broth microdilution MIC against characterized subsets of UTI E. coli (2018-2020). An excerpt:
Isolates were collected from medical centers in all 9 US Census Regions and tested by broth microdilution. MIC interpretation was based on CLSI. Isolates that met MIC criteria were subjected to genome sequencing, followed by screening of extended-spectrum b-lactamase (ESBL) genes and epidemiology typing (MLST).

Assay [12] deals with other methicillin-susceptible coagulase-negative staphylococci (MSCONS). The experiment in a line: Broth microdilution against Gram-positive clinical isolates. On the procedure: The purpose of this study was to investigate the in vitro activity of tebipenem and comparator agents, including ertapenem and meropenem, against a recent collection of Gram-positive isolates associated with clinical infections. The susceptibility of 580 Gram-positive organisms were tested, including: […] Bacterial species were identified by JMI Laboratories using standard microbiology methods and matrix-assisted laser desorption ionization-time of flight mass spectrometry (Bruker Daltonics, Bremen, Germany). […] Isolates were tested in a central laboratory (JMI Laboratories) for antimicrobial susceptibility using the CLSI […] (2018) reference broth microdilution method. JMI Laboratories produced frozen-form 96-well panels and used cation-adjusted Mueller-Hinton broth (CA-MHB) as the testing medium. […] Quality control organisms include Escherichia coli ATCC 25922, Escherichia coli ATCC 35218, Enterococcus faecalis ATCC 29212, Pseudomonas aeruginosa ATCC 27853, and Staphylococcus aureus ATCC 29213 were tested concurrently with clinical isolates.

The test system of assay [13] is Methicillin-susceptible Staphylococcus epidermidis (MSSE). Described as above. How it is done:
as §6

Assay [14] relates to Methicillin-susceptible Staphylococcus aureus (MSSA). Described as above. On the procedure:
as §6

On to `CC(C)(O/N=C(\C(=O)N[C@@H]1C(=O)N2C(C(=O)[O-])=C(C[n+]3ccccc3)CS[C@H]12)c1csc(N)n1)C(=O)O` [Ceftazidime], for which the “effect of exposure on production of AmpC” value in [1] is “did not seem to affect production of AmpC”; in [2] it was “increased the production of AmpC”. Moreover, in assay [3] (Enterobacterales (36)), the “CLSI %1” value amounted to 11.4%. Further, the “CLSI % R” value in [3] (Enterobacterales (36)) amounted to 60.0%; in [4], 71.9%. In addition, the “CLSI % S” value was found to be 28.6% in assay [3] (Enterobacterales (36)) and 15.6% in [4]. In addition, in assay [3] (Enterobacterales (36), read-out: MIC50), the MIC50 was determined as 32 µg/mL (≈ 58.5 µM). The MIC90 is above 32 µg/mL in assay [3] (Enterobacterales (36), read-out: MIC90); 8 to 16 µg/mL (≈ 14.6 to 29.3 µM) in [6] (against ENT, EC, and KPN, read-out: MIC90). The “% susceptible; CLSI” value is “(98.7) %” in assay [5]; 98.7% in assay [5] (listed as CAZ); “(88.1%)” in [6] (All (3,567)); “(89.3) %” in assay [7]; “(86.1) %” in assay [8]. For the same compound, the susceptibility in assay [6] (against ENT, EC, and KPN) is given as 86.1-89.3%.

In the case of `CC1(C)S[C@@H]2[C@H](NC(=O)[C@H](N)c3ccccc3)C(=O)N2[C@H]1C(=O)O` [ampicillin], the Susceptibility rate in assay [9] came to 100.0%.

With `C[C@H]1COc2c(N3CCN(C)CC3)c(F)cc3c(=O)c(C(=O)O)cn1c23` [Levofloxacin, levofloxacin], the “prevalence of resistant phenotype” value in assay [10] came to 20.6%. The compound also had a Susceptibility rate in assay [9] of 80.6%. The “% susceptible; CLSI” value is listed as “(71.8) %” in assay [5], “(79.4) %” in assay [6] (All (3,567)), “(75.7) %” in assay [7] and “(87.1) %” in assay [8].

As to amoxicillin-clavulanate (2:1) [A/C], the “CLSI %1” value in assay [3] (Enterobacterales (36)) is given as 11.1%. Also, in assay [3] (Enterobacterales (36)), the “CLSI % R” value is reported as 86.1%. In assay [3] (Enterobacterales (36)), the “CLSI % S” value was found to be 2.8%. Besides, the MIC50 is above 32 μ/ml in assay [3] (Enterobacterales (36)); 8 µg/mL in assay [11] (CTX-M a); 16 µg/mL in [11] (ESBL (360)); 4 µg/mL in [11] (Non-ESBL (2035)); 1/1 mg/mL in [5]; 4000 µg/mL in [6] (All (3,567)). Further, the MIC50 in assay [7] was 4000 µg/mL; in assay [8] it was 2000 µg/mL. Also, the MIC90 in [3] (Enterobacterales (36)) is above 32 μ/ml; in assay [11] (CTX-M a), 16 µg/mL; in [11] (ESBL (360)), 32 µg/mL; in [11] (Non-ESBL (2035)), 16 µg/mL; in assay [5], 1/1 mg/mL; in assay [6] (All (3,567)) it was 32000 µg/mL. Also, the MIC90 in [7] and in assay [8] was 16000 µg/mL in each case. The “% susceptible by CLSI M100 criteria” value came to 57.6% in assay [11] (CTX-M a), 47.2% in assay [11] (ESBL (360)) and 86.6% in [11] (Non-ESBL (2035)). The “% susceptible; CLSI” value in assay [5] is recorded as “(96.6) %”; in assay [5] (listed as amoxicillin/clavulanate), 96.6%; in [6] (All (3,567)), “(76.1) %”; in [7], “(80.8) %”; in assay [8], “(86.7) %”.

With trimethoprim-sulfamethoxazole [TMP-SMX], the “susceptibility (% S)” value in assay [12] is reported as 83.9%. The “prevalence of resistant phenotype” value in assay [10] was determined as 30.1%. The MIC50 was at most 0.12 mg/mL in [5], at most 120 µg/mL in assay [6] (All (3,567)), at most 120 µg/mL in assay [7] and at most 120 µg/mL in [8]. Further, the MIC90 in assay [5] was above 4 mg/mL; in assay [6] (All (3,567)), above 4000 µg/mL; in [7], above 4000 µg/mL; in [8] it was above 4000 µg/mL. Further, the entries for the “% susceptible; CLSI” value in [6] (All (3,567)), in [7] and in assay [8] were “(73.9) %”, “(69.2) %” and “(79.8) %”, respectively.

In [10], `CC1(C)S[C@@H]2[C@H](/N=C/N3CCCCCC3)C(=O)N2[C@H]1C(=O)O` [mecillinam] showed an MIC90 above 8 µg/mL and a Susceptibility rate of 88.0%.

In assay [3], `C[C@@H](O)[C@H]1C(=O)N2C(C(=O)O)=C(S[C@@H]3CN[C@H](C(=O)N(C)C)C3)[C@H](C)[C@H]12` [Meropenem, meropenem] registered an MIC50 of 0.03 µg/mL (≈ 0.0782 µM) and an MIC90 of 0.12 µg/mL (≈ 0.313 µM). For the same compound, in assay [3] (Enterobacterales (36)), the “CLSI %1” value is recorded as 0.0%, the “CLSI % R” value is on record as 0.0%, the “CLSI % S” value was 100.0% and the MIC50 is on record as 0.03 μ/ml. In [3] (Enterobacterales (36)), this compound yielded an MIC90 of 0.12 μ/ml and an MIC range of at most 0.015 to 1 μ/ml. Besides, in assay [4], the “CLSI %1” value worked out at 0.0%, the “CLSI % R” value is reported as 0.0%, the “CLSI % S” value is listed as 100.0% and the MIC range was in the range of 0.12 to 2 μ/ml. In assay [10], this compound returned an MIC90 of 0.03 µg/mL (≈ 0.0782 µM) and a Susceptibility rate of 100%. In [9] (Enterococcus faecalis, 31 isolates), the MIC90 was above 1 µg/mL.

As to `CC[C@H]1OC(=O)[C@H](C)[C@@H](O[C@H]2C[C@@](C)(OC)[C@@H](O)[C@H](C)O2)[C@H](C)[C@@H](O[C@@H]2O[C@H](C)C[C@H](N(C)C)[C@H]2O)[C@](C)(O)C[C@@H](C)C(=O)[C@H](C)[C@@H](O)[C@]1(C)O` [erythromycin], the “susceptibility (% S)” value in assay [12] came out at 54.8%. In addition, the Susceptibility rate in [13] is 54.8%; in assay [14] it was 65.6%.
